A short description of data set [1]: DPPH radical quenching assay. The class given is biochemical. An excerpt:
Compound 2 (Chart 2) exists largely as the pyridol tautomer as confirmed by NMR. The reactivity of pyridol/pyridone based compounds such as chelidamic acid have shown reactivity with OH radicals in solution to form bis-pyridones and is a different mechanism than pyridine based compounds such as 1 (Chart 2). This reactivity is attributed to the enhanced antioxidant capacity observed. Chelidamic acid is the pyridone congener to the starting material used to produce 1. Therefore similar methodologies to produce 2 in gram scale quantities were employed.
As radicals are one product of miscompartmentalized metal ions, radical scavenging capability of compounds 1-3 (Chart 4) was tested using the DPPH assay. DPPH (2,2-diphenyl-1-picrylhydrazyl), is a dark purple (λmax=540 nm), stable free radical in solution that can be reduced to DPPHH in the presence of molecules with radical scavenging activity. This process results in a color change from dark purple to light yellow and can be followed spectroscopically by the decrease of the band at 540 nm. Applicants have, therefore, utilized this method to measure radical scavenging capability of their own organic molecules. BHT (butylhydroxytoluene) was used as a positive control due to its known antioxidant properties.
DPPH stock solution was prepared by dissolving 25 mg in 100 mL of absolute EtOH. The working radical solution was prepared by dilution with absolute EtOH to an absorbance of 1.3 at 512 nm. Stock solutions of the compounds tested were dissolved in DI H2O and EtOH 95% respectively and serial dilutions were made to get different concentrations. For the analysis 2 mL of the solutions were incubated with 2 mL of DPPH working solutions in the dark for 24 h. as well as 2 mL of DPPH working solution with 2 mL of H2O or EtOH to serve as blank. Analysis of the solutions was performed as follows: 1 mL of the sample solution was diluted with 1 mL of H2O shaken and the absorbance was measured at 515 nm.

A short description of a further data set: MTT cytotoxicity assay. The settings on record: mouse, HT-22 hippocampal neuronal cells, HT-22 cells. It counts as cell-based. On the procedure: As these compounds show potential for future in vivo studies, the 3-(4,5-dimethythiazol-2-yl)-2,5-diphenyl tetrazolium bromide (MTT) assay was performed in order to test compounds 2, 3 of Chart 4 for cytotoxicity with HT-22 cells, which is a hippocampal neuronal cell line extracted from mice. This is a colorimetric assay that measures the mitochondrial activity of living cells in which MTT crosses into the mitochondria where it is reduced to media insoluble formazan (dark purple), which is later solubilized in DMSO and measured spectroscopically (λmax=540 nm). Since the reduction of MTT can only occur in living cells with undamaged mitochondria, this is a good assay to measure cell proliferation and cytotoxicity.
For the biological assays mouse hippocampal HT-22 cell line was used, incubated them at 37° C. in a humidified atmosphere 5% CO2, with Dulbecco's Modified Eagle Medium (500 ml) containing penicillin/streptomycin 100× (5 ml), Glutamine (100 mM, 5 ml), charcoal strip fetal bovine serum. […]
(3-(4,5-dimethylthiazol-2-yl)-2,5-diphenyltetrazolium bromide) cells were seeded in a 96 well plate with a density of 5000 cells per well (in 100 μL per well). […] Media is discarded again and 100 μL of DMSO are added to each well, rocked for 5 minutes and the absorbance (A510) was measured using a Molecular Devices Kinetic Microplate Reader.

The nature of data set [2]: log K constants with Cu^II. The class given is binding. From the text:
(§1) The ligand is the backbone to PCTA, a potential MRI contrast agent explored in recent years and has been repurposed for Applicant's work.

Data set [3] in a line: log K constants with Zn^II. The class given is binding.
Description: as §1

Data set [4] can be described thus: ABTS radical assay standardized against Trolox. The class given is biochemical. As to conditions: ligand concentration 100 μM.
Data set [5] concerns FRDA cells. Description: Calcein AM viability assay with BSO. The class given is cell-based, human. As to conditions: Homo sapiens, 48 hour BSO 1 mM; for viability at 0.001 µM: compound 1 nM final, read-out: cell viability compared to untreated control cells. The procedure: (§2) FIG. 5 is a graph showing a Calcien AM viability assay of FRDA cells after 48 hour exposure to BSO [1 mM] with 1-4 [1 nM final].
(§3) FIG. 10 is a graph showing Calcein AM viability assay of FRDA cells after 48 hour exposure to BSO [1 mM] followed by addition of 2 [various concentrations].
(§4) FRDA cells have higher levels of ROS due to mitochondrial misfunction associated with frataxin expression and therefore serve as a good model for ROS protection. […] Calcein AM, a non-fluorescent, hydrophobic compound that easily permeates intact, live cells, was used as an indicator for cell viability.
(§5) This dose response is visualized in the fluorescent cell images shown in FIG. 11 with increased cell survival corresponding to increasing 2 in the nM range.

Data set [6] has as its system Aβ1-40. Description: Turbidity assay of metal-induced amyloid aggregation. It counts as biochemical. The settings on record: for disaggregation of pre-formed metal-induced Aβ1-40 aggregates (turbidity): copper(II) or zinc(II) aggregates, ligand added afterwards. An excerpt:
Metal ions (copper and zinc) bind to a histidine rich domain in amyloid producing Aβ in the form of insoluble plaques. This process has been comprehensively studied and described in a number of recent reviews. The aggregation of amyloid can be followed by simple spectroscopic techniques such as turbidity and tyrosine fluorescence studies. These methods were used to investigate the ability of 1 to dissociate pre-formed amyloid aggregates upon addition of metal ions, as well as prevent amyloid aggregation.
Metal ions bind to a histidine rich domain in amyloid producing Aβ in the form of insoluble plaques. This process has been extensively studied and described in a number of recent reviews.

Data set [7] has as its system Aβ1-40. Description: Tyr^10 fluorescence of Aβ1-40. It counts as biochemical. From the text:
FIG. 2 is a graph showing the addition of ligands 1-4 to aggregated Aβ results in reconstitution of Tyr^10 fluorescence which was decreased due to aggregate formation.
To further determine the capability of 1 to prevent or disrupt metal-ion induced amyloid aggregation, Applicant's studied Tyr fluorescence intensity. Recent reports have also utilized the natural fluorescence of the native Tyr^10 in the Aβ1-40 sequence to study the conformational dynamics of amyloid folding as it relates to AD and/or production of H2O2. As Tyr^10 is located within proximity to the metal binding pocket in Aβ1-40 the fluorescence intensity of the phenolic side chain decreases during the folding process due to environmental changes that occur locally. This work was supported by circular dichroism spectra, which verified that fluorescence intensity decreased as the conformation of amyloid changed to beta-sheets. […] Applicant's hypothesis was that Tyr fluorescence intensity should be restored to control levels upon addition of compounds 1-4 (Chart 1) to a solution of pre-formed metal aggregates, as shown below in FIG. 2. […] Similar results were also obtained for amyloid samples co-incubated with 1-4 prior to metal ion addition.
The macrocyclic compound 2 (Chart 2) is also a chelator capable of preventing metal-induced amyloid formation as well as disaggregation. Metal ions bind to a histidine rich domain in amyloid producing Aβ in the form of insoluble plaques. This process has been extensively studied and described in a number of recent reviews. […] Moreover, amyloid aggregates formed by metal ion co-incubation can be disaggregated by the addition of compounds 1 or 2 (FIG. 12b).

Data set [8] concerns FRDA cells. Description: DCFH-DA ROS assay with BSO. The class given is cell-based, human. On the procedure:
FIG. 6 is a graph showing DCFH-DA fluorescent response in FRDA cells after 12 hours exposure to BSO [1 mM] with 1-4 [4 nM].
FIG. 7 is a graph of DCFH-DA fluorescent response in FRDA cells after 12 hours exposure to BSO [1 mM] showing dose dependence with 1.
FIG. 9 is a graph of DCFH-DA fluorescent response in FRDA cells after 12 hours exposure to BSO [1 mM] showing dose dependence with 1 and 2.
The antioxidant activity of compound 1 compared to compounds 2-3 (Chart 1) was then studied using the cell-permeable fluorophore 2,7′-Dichlorodihydrofluorescin diacetate (DCFH-DA) as an indicator for ROS. DCFH-DA diffuses into cells and is deacetylated by cellular esterases to non-fluorescent 2′,7′-Dichlorodihydrofluorescin (DCFH). This species is subsequently oxidized to the highly fluorescent 2′,7′-Dichlorodihydrofluorescein (DCF) species in the presence of ROS. The fluorescent intensity is directly proportional to the amount of ROS present in cell cytosol. BSO (2-amino-4-(butylsulfonimidoyl)butanoic acid) was used to inhibit the first step of de novo glutathione synthesis, allowing us to observe the elevated intra-cellular [ROS] are thereby observed.
Cellular studies were carried out to evaluate the intra-cellular antioxidant efficacy and toxicity of compound 2 (Chart 2) compared to 1 using the cell-permeable fluorophore 2,7′-dichlorodihydrofluorescin diacetate (DCFH-DA) as an indicator for ROS. DCFH-DA diffuses into cells and is deacetylated by cellular esterases to non-fluorescent 2′,7′-dichlorodihydrofluorescin (DCFH) which is subsequently oxidized to the highly fluorescent 2′,7′-dichlorodihydrofluorescein (DCF) species in the presence of ROS. The fluorescence intensity is directly proportional to the amount of ROS present in cell cytosol.^11 BSO (2-amino-4-(butylsulfonimidoyl)butanoic acid) is a commonly used model for oxidative stress via inhibition of cytosolic glutathione synthesis resulting in elevated intra-cellular [ROS] and an increased fluorescent signal in the presence of DCFH (FIG. 9).

Data set [9] is described as follows: Cu-ascorbate redox system with coumarin-3-carboxylic acid (CCA). It counts as biochemical. The settings on record: added after two minutes co-incubation with CCA. An excerpt:
As increased levels of ROS are associated with AD, Applicant's set out to investigate the antioxidant character of 1 compared to the heterocycles 2 and/or 3. […] Moreover, many of the pathways proposed to produce ROS leading to AD pathology involve metal ions. Applicant's therefore utilized the Cu-ascorbate redox system, Scheme 1, as a model to determine if the ligands could halt copper based redox activity under aerobic conditions:
Faller and co-workers employed this system to investigate the redox chemistry of amyloid systems with Cu. Coumarin-3-carboxylic acid (CCA), which generates fluorescent 7-hydroxy-CCA in the presence of hydroxyl radicals, was used to quantify the reduction of oxygen by copper redox-cycling in the presence of ascorbate.

For data set [10] the following is noted: LA/DHLA; cited from earlier work.
Data set [11] can be described thus: Calcein AM viability assay with BSO. It counts as cell-based, human. The settings on record: human, FRDA cells (fibroblasts from a Friedreich's Ataxia patient), BSO 1 mM alone, read-out: cell viability compared to control cells, BSO-alone. On the procedure: as §2, §3, §4, §5

Where only a bound is given, the exact number is not on record here.

As a reminder, the EC50 is the concentration needed to bring the measured effect to its halfway point. Take `O=C(NCCNc1nc(N2CCNCCNCCNCC2)nc(N2CCNCCNCCNCC2)n1)c1cc2ccccc2oc1=O` [3 (Chart 4), N-(2-((4,6-di(1,4,7,10-tetraazacyclododecan-1-yl)-1,3,5-triazin-2-yl)amino)ethyl)-2-oxo-2H-chromene-3-carboxamide]: in data set [1] (concentration dependent, concentrations not given), the “quenching of the DPPH radical” value is on record as 52-64%. In “MTT cytotoxicity assay”, the EC50 at 48 h was 125 µM.

The viability is a per cent measure of how many cells are alive, often set against a control. In the case of `O=C(O)CN(CCN(CC(=O)O)CC(=O)O)CC(=O)O` [4 (Chart 1)], the “log K constants Cu^II” value in [2] was found to be 9.18. In data set [3], the “log K constants Zn^II” value is reported as 8.41. Further, the “Trolox equivalents (ABTS radical)” value in [4] is given as 0.15 Trolox equivalents. Moreover, the viability at 0.001 µM in the data set on FRDA cells [5] was above 60%.

With `Oc1cc2nc(c1)CNCCNCCNC2` [Compound 2 (Chart 2)], the “disaggregation of pre-formed metal-induced Aβ1-40 aggregates (turbidity)” value in the data set on Aβ1-40 [6] is “disaggregated”. Also, the “prevention of metal-induced Aβ1-40 aggregation (turbidity)” value with Aβ1-40 [6] (ligand co-incubated with amyloid before copper(II) or zinc(II) addition) is listed as “prevents formation of aggregations”. Besides, in the data set with Aβ1-40 [7] (ligand added to pre-formed metal aggregates), the “reconstitution of Tyr^10 fluorescence of aggregated Aβ1-40” value is recorded as “equally effective”. Besides, the “prevention of loss of Tyr^10 fluorescence of Aβ1-40” value in the data set on Aβ1-40 [7] (ligand co-incubated prior to metal ion addition, 24 hours) is on record as “equally effective”. Also, the EC50 with FRDA cells [5] (read-out: EC50 protection against BSO assault (Calcein AM)) is 0.0315 ± 0.00496 µM. Further, the “decrease of [ROS] compared to the untreated cells” value in the data set with FRDA cells [8] (1.25 nM) was determined as 33%; in the data set on FRDA cells [8] (12.5 nM), 58%; in the data set on FRDA cells [8] (125 nM), 75%; with FRDA cells [8] (1.25 μM), 87%. The “ability to reduce free radicals in solution (DPPH) versus 1” value in data set [1] is “enhanced ability to reduce free radicals in solution”.

Consider “Aβ1-40: beta-amyloid peptide 1-40 with histidine rich metal binding site [reference compound]”, for which the “7-hydroxy-CCA signal after addition to running Cu-ascorbate system” value in data set [9] is “leveling of the 7-hydroxy-CCA signal”.

In the case of `C1CNCCNCCNCCN1` [cyclen, 1,4,7,10-tetraazacyclododecane, reference compound], in data set [1] (1250 μM), the “quenching of the DPPH radical” value is recorded as “no activity”.

For the compound `C1CNCCNCCNCCN1` [Compound 2 (Chart 1)], the “log K constants Cu^II” value in data set [2] turned out to be 23. For the same compound, the “log K constants Zn^II” value in [3] is 16. Further, the “disaggregation of pre-formed metal-induced Aβ1-40 aggregates (turbidity)” value in the data set with Aβ1-40 [6] is recorded as “Aβ dis-aggregating agents, which Applicant's studies corroborate”. In data set [4], the “Trolox equivalents (ABTS radical)” value was 0.23 Trolox equivalents. Further, the viability at 0.001 µM in the data set on FRDA cells [5] is above 60%.

Take `O=C(O)CCCCC1CCSS1` (stereo not drawn) [LA, α-lipoic acid]: the redox potential in data set [10] is −320 mV.

As to `CCCCS(=N)(=O)CCC(N)C(=O)O` (centres unmarked) [BSO, 2-amino-4-(butylsulfonimidoyl)butanoic acid, reference compound], the viability at 48 h, 1 mM in data set [11] is around 45%. For the same compound, the “increase in ROS, BSO-treated cells (positive control)” value in the data set with FRDA cells [8] (BSO 1 mM alone) is around 1.8 fold.

The record behind these values is patent US8969549B2, “Antioxidant small molecules aimed at targeting metal-based oxidative stress in neurogenerative disorders” (Texas Christian University, priority 2013, dated 2015).
